# Reference: US7129073B2, “Regulation of neuronal function through metabotropic glutamate receptor signaling pathways” (The Rockefeller University, priority 2001, dated 2006)
# pIC50: −log10 of the molar value.
# How the values were obtained:
# [1] = system: Ser137 of DARPP-32 (CK1 site); assay: DARPP-32 phospho-Ser137 immunoblot in neostriatal slices; type: cell-based, mouse
# Experimental: Neostriatal slices were prepared from male C57/BL6 mice (6–8 weeks old) in accordance with methods known in the art (Nishi, A. et al. 1997, J. Neurosci. 17:8147–8155). Slices were treated with a drug. After drug treatment, slices were immediately frozen in liquid nitrogen, and stored at −80° C. until assayed.
# Frozen slices were sonicated in hot homogenization buffer containing 1% SDS and 50 mM NaF, and samples were boiled for 10 minutes. SDS-PAGE sample buffer was then added and samples were boiled for 5 minutes. Samples (approximately 120 μg of total protein) were separated by SDS-PAGE (10% polyacrylamide) and then transferred to nitrocellulose. In most studies, immunoblots were first probed with anti-phospho-Ser137 DARPP-32 antibody. The blots were then stripped and probed with anti-phospho-Thr75 DARPP-32 antibody. Blots were stripped again and probed with anti-total DARPP-32 antibody. […] Chemiluminescence was detected by autoradiography and bands were quantified by analysis of scanned images using NIH IMAGE 1.52 software. Data were statistically analyzed by Student's t test in Microsoft EXCEL™ software as indicated.
# Neostriatal slices were prepared from male C57/BL6 mice (6–8 weeks old) as disclosed (22). Slices were treated with drugs as specified in the text and figure legends. After drug treatment, slices were immediately frozen in liquid nitrogen, and stored at −80° C. until assayed.
# Frozen slices were sonicated in hot homogenization buffer containing 1% SDS and 50 mM NaF, and samples were boiled for 10 min. SDS-PAGE sample buffer was then added and samples were boiled for 5 min. Samples (approximately 120 μg protein) were separated by SDS-PAGE (10% polyacrylamide) and transferred to nitrocellulose. Immunoblots were first probed with antiphospho-Ser-137 DARPP-32 antibody. The blots were stripped and probed with anti-phosphoThr-75 DARPP-32 antibody. Blots were stripped again and probed with anti-total DARPP-32 antibody. Antibody binding was detected by enhanced chemiluminescence (ECL) using X-ray film, and images were analyzed by laser scanning densitometry using NIH Image 1.52 software. Data were statistically analyzed by Student's t-test using Microsoft EXCEL™ software as indicated.
# CKI = assay: in vitro inhibitory potency of CKI-7 towards CKI; type: biochemical
# Experimental: (§1) CKI may also regulate Cdk5 kinase activity in response to mGluR receptor activation, or vice versa. To examine these possibilities, experiments were performed with a CKI inhibitor, CKI-7. The crystal structure of the catalytic domain of casein kinase I complexed with CKI-7 provided evidence that CKI-7 achieves its selectivity for CKI by hydrophobic contacts and hydrogen bonding with the isoquinoline ring (Xu, R. M. et al. 1996. Proc. Natl. Acad. Sci. USA 93:6308–6313). In in vitro studies, the inhibitory potency (IC50 values) for CKI-7 towards CKI and Cdk5/p25 was determined.
# Cdk5/p25 = Cdk5/p25 (Homo sapiens, UniProt Q00535); assay: in vitro inhibitory potency of CKI-7 towards Cdk5/p25; type: biochemical
# Experimental: as §1
# MM2-CK1ε [2] = assay: phosphopeptide mapping of MM2-CK1ε in N2a cells; type: cell-based; conditions: DHPG 2 min
# Experimental: Twenty-four hours after transfecting N2a cells with CK1ε expression plasmids, cells were incubated in 200 μCi/ml (NEN) ^32P-inorganic phosphate and phosphate-free serum-free DMEM for 2 h. […] Cells were treated with DHPG for various periods of time as indicated, harvested by lysis in RIPA buffer and clarified by centrifugation at 14,000×g for 10 min. Soluble extracts containing HA- or Myc-tagged proteins were immunoprecipitated with 12CA5 or 9E10 monoclonal antibody and protein A-agarose. The immunoprecipitates were eluted from the protein A-agarose and separated by SDS-PAGE on 10% gel. Proteins were stained briefly with Coomassie Brilliant Blue, the gels were dried, and the labeled proteins were visualized by autoradiography.
# Radiolabeled protein bands were excised, rehydrated, de-stained and dried in a speedvac. The gel slices were minced and rehydrated in 75 μg/ml TPCK/trypsin in 50 mM NH4CO3H (1 ml final volume) for 24 h at 37° C. The supernatant was removed from the gel slices and then lyophilized to dryness. Recovery of tryptic phosphopeptides was determined by Cerenkov counting. The two-dimensional peptide mapping method was used to separate phosphopeptides (23). Lyophilized tryptic peptides were suspended in 10 μl of electrophoresis buffer (10% acetic acid and 1% pyridine, pH 3.5) and spotted onto thin-layer cellulose plates (20×20 cm, Analtech). […]
# HA-CK1ε = assay: 32P metabolic labeling and two-dimensional phosphopeptide mapping of HA-CK1ε in N2a cells; type: cell-based; conditions: DHPG 2 or 4 min; returned to 0 min level at ten min
# MM2-CK1ε [3] = assay: kinase activity of Myc-MM2-CK1ε mutant immunoprecipitated from transfected N2a cells; type: cell-based; conditions: DHPG 100 μM 2 min, in the absence or presence of cyclosporin A
# Experimental: Neuroblastoma N2a cells were cultured to 50–60% confluence in DMEM containing 5% fetal bovine serum. Four μg of the expression plasmid for HA-CK1ε or myc-MM2-CK1ε was transfected into N2a cells in 100 mm dishes using FuGENE6™. Twenty-four hours after transfection, cells were incubated at room temperature in phosphate-buffered Kreb's-Henseleit solution (Sigma) for 10 min and then with or without inhibitors for 30 min before treating with (S)-3,5-DHPG, for 2 min. Cells were then lysed in 1 ml of radio-immunoprecipitation (RIPA) buffer containing 1% NP-40, 150 mM NaCl, 0.1% SDS, 50 mM Tris, pH 8.0, 5 mM Na3VO4, 20 mM NaF, 20 mM β-glycerol-phosphate and protease inhibitors. Lysates were centrifuged at 10,000 g, and supernatants were used for immunoprecipitation and kinase assay.
# For immunoprecipitation of CK1ε from N2a cells, lysates (1 mg of total protein) were precleared with 5 μl of mouse IgG (ICN) and 50 μl of protein A agarose for 30 min. Five μl (approximately 2 μg) of anti-HA or anti-myc antibody was added and samples were incubated for 1 h at 4° C. Five μl of anti-mouse rabbit IgG and 50 μl of protein A agarose were then added for 45 min. […]
# CK1 assays were performed in a 30 μl assay volume with 2 μg of purified DARPP-32, 500 μM ATP and 5 μCi γ-^32P-ATP. […] Results were quantified using a Molecular Dynamics PHOSPHORIMAGER™. […]
# Chain of Cdk5/p25 (Q00535 whole entry, species assumed): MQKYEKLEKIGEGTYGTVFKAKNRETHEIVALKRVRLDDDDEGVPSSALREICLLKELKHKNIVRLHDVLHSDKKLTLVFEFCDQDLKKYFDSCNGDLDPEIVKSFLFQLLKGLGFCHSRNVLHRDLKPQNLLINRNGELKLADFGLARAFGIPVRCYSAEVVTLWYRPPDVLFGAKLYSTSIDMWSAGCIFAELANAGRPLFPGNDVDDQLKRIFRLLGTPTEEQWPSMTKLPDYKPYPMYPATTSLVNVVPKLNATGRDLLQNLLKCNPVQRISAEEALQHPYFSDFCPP
# Chain of Cdk5/p25 (Q15078 99-307 partner limits assumed, species assumed): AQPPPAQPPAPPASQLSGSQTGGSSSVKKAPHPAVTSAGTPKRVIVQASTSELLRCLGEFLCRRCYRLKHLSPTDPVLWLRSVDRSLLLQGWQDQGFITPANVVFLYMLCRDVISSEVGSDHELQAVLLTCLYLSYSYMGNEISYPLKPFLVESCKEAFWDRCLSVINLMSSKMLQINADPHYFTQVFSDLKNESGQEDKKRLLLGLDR
pIC50 (CKI),pIC50 (Cdk5/p25),Structure (SMILES),"effect on basal or DHPG-stimulated DARPP-32 phosphorylation at Ser137 ([1]; 50 μM CKI-7, 30 min before DHPG 2 min)","effect on basal and DHPG-stimulated DARPP-32 phosphorylation at Ser137 ([1]; CKI-7 100 to 300 μM, 30 min before DHPG 2 min)",effect on phosphorylation of MM2-CK1ε (MM2-CK1ε [2]),effect on phosphorylation state of CK1ε (subset of acidic phosphopeptides) (HA-CK1ε),effect on MM2-CK1ε activity (MM2-CK1ε [3]),"increase in phosphorylation of Ser137 ([1]; DHPG 100 μM, group I mGluR activation)","time of peak level of phosphorylation of Ser137 ([1]; DHPG 100 μM, back to basal level by 5 minutes)","effect on phosphorylation of Ser137 in DARPP-32 ([1]; slices treated with drug alone: DHPG 100 μM, ionomycin 2 μM)"
4.82,3.70,NCCNS(=O)(=O)c1ccc(Cl)c2ccncc12 [CKI-7],little effect,dose-dependent decreases,–,–,–,–,–,–
–,–,"N[C@H](C(=O)O)c1cc(O)cc(O)c1 [DHPG, (S)-3,5-Dihydroxyphenylglycine]",–,–,no effect,rapid and transient dephosphorylation,no effect,2–3 fold,2 min,rapid but transient increase
